Measurements: ChEMBL document CHEMBL1144330, “Novel pyrazinone mono-amides as potent and reversible caspase-3 inhibitors” (Bioorg Med Chem Lett, 2005)

Legend:
Caspase-1 = target: T1, Caspase-1 (Homo sapiens, UniProt P29466); assay: Inhibitory concentration against recombinant human caspase-1 in neuronal precursor (NT2) cells
T1 sequence (P29466 whole entry): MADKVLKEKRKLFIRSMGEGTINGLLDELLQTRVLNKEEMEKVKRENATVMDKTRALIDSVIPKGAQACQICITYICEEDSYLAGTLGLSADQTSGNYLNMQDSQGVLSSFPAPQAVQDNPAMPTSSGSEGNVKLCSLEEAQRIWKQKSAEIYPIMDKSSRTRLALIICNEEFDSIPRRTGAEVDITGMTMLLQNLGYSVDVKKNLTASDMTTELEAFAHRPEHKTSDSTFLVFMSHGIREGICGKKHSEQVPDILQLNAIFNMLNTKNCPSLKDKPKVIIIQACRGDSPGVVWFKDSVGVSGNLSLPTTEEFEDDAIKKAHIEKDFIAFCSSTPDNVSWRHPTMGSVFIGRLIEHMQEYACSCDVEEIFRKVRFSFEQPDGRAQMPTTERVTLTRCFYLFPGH

Caspase-3 = target: T2, Caspase-3 (Homo sapiens, UniProt P42574); assay: Inhibitory concentration against recombinant human caspase-3 in neuronal precursor (NT2) cells
T2 sequence (P42574 whole entry): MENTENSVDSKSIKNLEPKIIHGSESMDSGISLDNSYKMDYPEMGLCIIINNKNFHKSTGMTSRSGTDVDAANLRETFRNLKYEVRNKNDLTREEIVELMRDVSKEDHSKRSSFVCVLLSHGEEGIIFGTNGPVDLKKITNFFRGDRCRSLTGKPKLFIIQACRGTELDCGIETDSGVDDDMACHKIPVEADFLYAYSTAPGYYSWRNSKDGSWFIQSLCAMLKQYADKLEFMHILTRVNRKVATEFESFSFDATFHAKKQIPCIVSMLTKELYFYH

Caspase-7 = target: T3, Caspase-7 (Homo sapiens, UniProt P55210); assay: Inhibitory concentration against recombinant human caspase-7 […]
T3 sequence (P55210 whole entry): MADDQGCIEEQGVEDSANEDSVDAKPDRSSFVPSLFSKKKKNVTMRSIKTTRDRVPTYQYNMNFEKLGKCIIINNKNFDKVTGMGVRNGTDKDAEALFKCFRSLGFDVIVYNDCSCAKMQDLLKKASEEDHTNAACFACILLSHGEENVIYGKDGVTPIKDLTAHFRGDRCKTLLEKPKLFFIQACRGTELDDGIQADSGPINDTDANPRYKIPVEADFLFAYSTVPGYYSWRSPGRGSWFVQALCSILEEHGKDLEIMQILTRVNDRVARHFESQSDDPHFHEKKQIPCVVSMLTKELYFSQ

Caspase-8 = Caspase-8 (Homo sapiens, UniProt Q14790); assay: Inhibitory concentration against recombinant human caspase-8 […]
NT2 = assay: Inhibitory concentration against camptothecin induced apoptosis in neuronal precursor (NT2) whole cells; type: functional, cell-based; conditions: Homo sapiens

Caspase-8, sequence (Q14790 217-374 limits assumed): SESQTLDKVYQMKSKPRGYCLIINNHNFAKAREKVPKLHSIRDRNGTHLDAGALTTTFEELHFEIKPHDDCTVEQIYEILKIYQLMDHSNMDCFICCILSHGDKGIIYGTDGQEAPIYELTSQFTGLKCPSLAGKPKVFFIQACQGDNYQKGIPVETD
Caspase-8, sequence (Q14790 385-479 limits assumed): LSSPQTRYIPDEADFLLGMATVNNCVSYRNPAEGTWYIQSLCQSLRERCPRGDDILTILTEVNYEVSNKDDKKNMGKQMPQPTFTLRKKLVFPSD

Row | SMILES | IC50 (Caspase-1) [nM] | IC50 (Caspase-3) [nM] | IC50 (Caspase-7) [nM] | IC50 (Caspase-8) [nM] | IC50 (NT2) [nM]
1 | CCC(C(=O)N[C@@H](CC(=O)O)C(=O)CNCN1CCCC1)n1ccnc(NCc2nonc2C)c1=O (stereo not given in full) | 290 | 33 | 410 | 6220 | 840
2 | CCC(C(=O)N[C@@H](CC(=O)O)C(=O)CSCc1ccccc1)n1ccnc(NCCOC)c1=O (stereo not given in full) | 1110 | 140 | > 10000 | > 10000 | 6790
3 | CCCCCCN(C)CNCC(=O)[C@H](CC(=O)O)NC(=O)C(CC)n1cc(CC)nc(NCc2nonc2C)c1=O (stereo not given in full) | 25 | 6 | 600 | 9540 | 78
4 | CCC(C(=O)N[C@@H](CC(=O)O)C(=O)CSCc1ccccc1)n1ccnc(NCc2nc(C)no2)c1=O (stereo not given in full) | 670 | 48 | 4680 | 6420 | 5330
5 | CCC(C(=O)N[C@@H](CC(=O)O)C(=O)CSCc1ccccc1)n1ccnc(NCc2nnc(-c3ccccc3)o2)c1=O (stereo not given in full) | 980 | 310 | > 10000 | 4920 | 52100
6 | CCCCCCN(C)CNCC(=O)[C@H](CC(=O)O)NC(=O)C(CC)n1cc(C(C)(C)C)nc(NCc2nonc2C)c1=O (stereo not given in full) | 67 | 6 | 42 | 6480 | 21
7 | CC(=O)N[C@@H](CC(=O)O)C(=O)N[C@@H](CCC(=O)O)C(=O)N[C@H](C(=O)N[C@@H](CC(=O)O)C(=O)CCCc1ccccc1)C(C)C | 310 | 0.8 | 8 | 16 | 30000
8 | CCCCCN(C)CNCC(=O)[C@H](CC(=O)O)NC(=O)C(CC)n1cc(C(C)(C)C)nc(NCc2nonc2C)c1=O (stereo not given in full) | 110 | 0.1 | 36 | 5950 | 2.7
9 | CCC(C(=O)N[C@@H](CC(=O)O)C(=O)CSCc1ccccc1)n1ccnc(NCc2noc(C)n2)c1=O (stereo not given in full) | 1080 | 72 | > 10000 | 7560 | 8060
10 | CCC(C(=O)N[C@@H](CC(=O)O)C(=O)CSCc1ccccc1)n1ccnc(NCCn2cncn2)c1=O (stereo not given in full) | 1930 | 18 | 9710 | > 10000 | 5740
11 | CCC(C(=O)N[C@@H](CC(=O)O)C(=O)CSCc1ccccc1)n1ccnc(NCCCc2nc(C)no2)c1=O (stereo not given in full) | 1700 | 53 | 2600 | > 10000 | 7100
12 | CCCCN(C)CNCC(=O)[C@H](CC(=O)O)NC(=O)C(CC)n1ccnc(NCc2nonc2C)c1=O (stereo not given in full) | 31 | 15 | 130 | > 10000 | 300
13 | CCC(C(=O)N[C@@H](CC(=O)O)C(=O)CSCc1ccccc1)n1ccnc(NCc2nccs2)c1=O (stereo not given in full) | 130 | 26 | 1130 | 1750 | 3080
14 | CCC(C(=O)N[C@@H](CC(=O)O)C(=O)CN[C@@H](C)c1ccccc1)n1ccnc(NCc2nonc2C)c1=O (stereo not given in full) | 64 | 14 | 1040 | 9260 | 1200
15 | CCCCCCN(C)CNCC(=O)[C@H](CC(=O)O)NC(=O)C(CC)n1cc(C(C)C)nc(NCc2nonc2C)c1=O (stereo not given in full) | 63 | 13 | 65 | 9040 | 4.8
16 | CCC(C(=O)N[C@@H](CC(=O)O)C(=O)CSCc1ccccc1)n1ccnc(NCc2cncs2)c1=O (stereo not given in full) | 190 | 12 | 490 | 6590 | 3420
17 | CCC(C(=O)N[C@@H](CC(=O)O)C(=O)CNCN(C)CC)n1ccnc(NCc2nonc2C)c1=O (stereo not given in full) | 56 | 26 | 540 | > 10000 | 1530
18 | CCC(C(=O)N[C@@H](CC(=O)O)C(=O)CSCc1ccccc1)n1ccnc(NCCCN2CCCC2=O)c1=O (stereo not given in full) | 1900 | 190 | > 10000 | 9920 | 50000
19 | CCC(C(=O)N[C@@H](CC(=O)O)C(=O)CNCN1CCOCC1)n1cc(C(C)(C)C)nc(NCc2nonc2C)c1=O (stereo not given in full) | 730 | 110 | 540 | > 10000 | 8620

Row | SMILES | IC50 (Caspase-1) [nM] | IC50 (Caspase-3) [nM] | IC50 (Caspase-7) [nM] | IC50 (Caspase-8) [nM] | IC50 (NT2) [nM]
20 | CCC(C(=O)N[C@@H](CC(=O)O)C(=O)CSCc1ccccc1)n1ccnc(NCCn2cccn2)c1=O (stereo not given in full) | 990 | 82 | > 10000 | 2260 | 7090
21 | CCCCCN(C)CNCC(=O)[C@H](CC(=O)O)NC(=O)C(CC)n1ccnc(NCc2nonc2C)c1=O (stereo not given in full) | 48 | 13 | 110 | > 10000 | 300
22 | CCC(C(=O)N[C@H](C=O)CC(=O)O)n1ccnc(NCc2nonc2C)c1=O (stereo not given in full) | 150 | 78 | 1000 | 990 | 3560
23 | CCC(C(=O)N[C@@H](CC(=O)O)C(=O)CSCc1ccccc1)n1ccnc(NCc2ccon2)c1=O (stereo not given in full) | 400 | 46 | 5170 | 2900 | 8560
24 | CCC(C(=O)N[C@@H](CC(=O)O)C(=O)CSCc1ccccc1)n1ccnc(NCCc2nc(C)no2)c1=O (stereo not given in full) | 900 | 80 | > 10000 | 9100 | 15300
25 | CCC(C(=O)N[C@@H](CC(=O)O)C(=O)CNCN(C)C)n1ccnc(NCc2nonc2C)c1=O (stereo not given in full) | 890 | 42 | 310 | > 10000 | 2640
26 | CCC(C(=O)N[C@@H](CC(=O)O)C(=O)CSCc1ccccc1)n1ccnc(NCCn2nc(C)cc2C)c1=O (stereo not given in full) | 1820 | 160 | > 10000 | 1660 | 9480
27 | CCC(C(=O)N[C@@H](CC(=O)O)C(=O)CNCN(CC)CC)n1ccnc(NCc2nonc2C)c1=O (stereo not given in full) | 1140 | 120 | 3240 | > 10000 | 3900
28 | CCC(C(=O)N[C@@H](CC(=O)O)C(=O)CSCc1ccccc1)n1ccnc(NCc2nonc2C)c1=O (stereo not given in full) | 220 | 7.9 | 730 | 2460 | 1390
29 | CCC(C(=O)N[C@@H](CC(=O)O)C(=O)CSCc1ccccc1)n1ccnc(NCc2cc(C)no2)c1=O (stereo not given in full) | 230 | 51 | 2540 | 3300 | 6410
30 | CCC(C(=O)N[C@@H](CC(=O)O)C(=O)CSCc1ccccc1)n1ccnc(Nc2ccc3sc(C)nc3c2)c1=O (stereo not given in full) | 220 | 88 | 2420 | 2730 | 37900
31 | CCCCCCN(C)CNCC(=O)[C@H](CC(=O)O)NC(=O)C(CC)n1ccnc(NCc2nonc2C)c1=O (stereo not given in full) | 28 | 11 | 140 | > 10000 | 130
32 | CCC(C(=O)N[C@@H](CC(=O)O)C(=O)CNCN1C2CCC1CC2)n1ccnc(NCc2nonc2C)c1=O (stereo not given in full) | 880 | 23 | 260 | 9220 | 1450
33 | CCCCCCN(C)CNCC(=O)[C@H](CC(=O)O)NC(=O)C(CC)n1cc(C(C)(CC)CC)nc(NCc2nonc2C)c1=O (stereo not given in full) | 110 | 16 | 87 | > 10000 | 25
34 | CCC(C(=O)N[C@@H](CC(=O)O)C(=O)CNCN1CCc2ccccc2C1)n1ccnc(NCc2nonc2C)c1=O (stereo not given in full) | 13 | 13 | 83 | 7380 | 1250
35 | CCC(C(=O)N[C@@H](CC(=O)O)C(=O)CNCN1Cc2ccccc2C1)n1ccnc(NCc2nonc2C)c1=O (stereo not given in full) | 8.7 | 14 | 130 | 4290 | 1520
36 | CCC(C(=O)N[C@@H](CC(=O)O)C(=O)CNCN1CCC(Cc2ccccc2)CC1)n1ccnc(NCc2nonc2C)c1=O (stereo not given in full) | 47 | 56 | 840 | 6020 | 1620
37 | COc1ccc(S(C)(=O)=O)cc1CC(=O)N[C@H](C(=O)N[C@@H](CC(=O)O)C(=O)CSCc1ccccc1)C(C)C | 1600 | 5 | 120 | 490 | 1000
